Literature values as cited in US9241965B2, “Composition containing Prunus mume extract for external application to skin” (AMOREPACIFIC CORPORATION, priority 2010, dated 2016).

Biological target: T1, TRPV1 (Homo sapiens, UniProt Q8NER1)
T1 construct: endogenous in cells; host or cells: HaCAT cells
Conditions: skin temperature about 42° C.

T1 sequence (Q8NER1 whole entry, species assumed): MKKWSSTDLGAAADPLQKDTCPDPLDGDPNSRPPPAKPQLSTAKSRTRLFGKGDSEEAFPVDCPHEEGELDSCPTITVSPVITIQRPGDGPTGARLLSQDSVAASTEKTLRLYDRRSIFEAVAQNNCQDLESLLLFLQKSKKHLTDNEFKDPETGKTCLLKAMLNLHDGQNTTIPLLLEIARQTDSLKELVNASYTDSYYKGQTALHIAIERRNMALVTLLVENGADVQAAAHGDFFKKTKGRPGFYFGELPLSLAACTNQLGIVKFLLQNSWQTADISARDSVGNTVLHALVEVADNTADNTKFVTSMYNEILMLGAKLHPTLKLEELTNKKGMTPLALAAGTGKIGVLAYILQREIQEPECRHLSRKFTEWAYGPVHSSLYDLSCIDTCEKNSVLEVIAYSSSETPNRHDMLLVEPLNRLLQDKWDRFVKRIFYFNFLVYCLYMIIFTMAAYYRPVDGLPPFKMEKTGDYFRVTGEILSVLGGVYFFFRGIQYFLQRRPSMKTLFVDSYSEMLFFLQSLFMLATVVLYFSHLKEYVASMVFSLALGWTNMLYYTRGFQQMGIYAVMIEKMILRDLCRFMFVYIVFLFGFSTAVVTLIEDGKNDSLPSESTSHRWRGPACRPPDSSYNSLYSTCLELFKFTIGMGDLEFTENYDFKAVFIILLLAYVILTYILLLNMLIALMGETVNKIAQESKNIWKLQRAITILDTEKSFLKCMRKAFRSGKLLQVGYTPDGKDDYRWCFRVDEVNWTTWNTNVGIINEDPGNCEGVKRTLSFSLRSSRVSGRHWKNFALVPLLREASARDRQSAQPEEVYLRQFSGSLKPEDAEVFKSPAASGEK

Structure (SMILES): Oc1cc2c(cc1O)CN(C(=S)NCCc1ccc(Cl)cc1)CCC2 [capsazepine]
- rate of skin barrier recovery: restores the rate of skin barrier recovery to normal level
